Experimental data from ChEMBL document CHEMBL1909046, “DrugMatrix in vitro pharmacology data”.

Columns and labels:
[1] = target: T1, Alpha-1A adrenergic receptor (Rattus norvegicus, UniProt P43140); assay: DRUGMATRIX: Alpha-1A adrenergic receptor radioligand binding (ligand: prazosin); assay type: cell membranes, Wistar, Submaxillary gland, Membrane; conditions: Not Active = under 50% inhibition at 10 µM
T1 sequence (P43140 whole entry): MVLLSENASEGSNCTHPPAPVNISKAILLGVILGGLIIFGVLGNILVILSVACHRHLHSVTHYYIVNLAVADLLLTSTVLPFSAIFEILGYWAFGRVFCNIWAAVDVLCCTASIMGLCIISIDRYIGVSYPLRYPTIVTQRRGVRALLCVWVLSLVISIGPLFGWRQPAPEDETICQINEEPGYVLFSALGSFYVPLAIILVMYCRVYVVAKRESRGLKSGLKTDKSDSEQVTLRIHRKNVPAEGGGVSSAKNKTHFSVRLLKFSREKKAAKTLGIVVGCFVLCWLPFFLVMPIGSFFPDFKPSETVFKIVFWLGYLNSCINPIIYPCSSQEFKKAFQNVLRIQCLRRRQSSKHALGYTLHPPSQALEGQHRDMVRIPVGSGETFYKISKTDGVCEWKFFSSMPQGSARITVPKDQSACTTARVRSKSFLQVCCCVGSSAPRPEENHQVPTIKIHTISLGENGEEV

Carbonic anhydrase 2 = Carbonic anhydrase 2 (Homo sapiens, UniProt P00918); assay: DRUGMATRIX: Carbonic Anhydrase II enzyme inhibition (substrate: 4-Nitrophenyl acetate (4-NPA)); assay type: tissue-based, Erythrocyte; conditions: erythrocyte; Not Active = under 50% inhibition at 10 µM
[2] = target: T2, Muscarinic acetylcholine receptor M4 (Homo sapiens, UniProt P08173); assay type: cell membranes, CHO-K1, Membrane; conditions: cho-k1; note: in other assays of this panel Not Active means under 50% inhibition at 10 µM
T2 sequence (P08173 whole entry): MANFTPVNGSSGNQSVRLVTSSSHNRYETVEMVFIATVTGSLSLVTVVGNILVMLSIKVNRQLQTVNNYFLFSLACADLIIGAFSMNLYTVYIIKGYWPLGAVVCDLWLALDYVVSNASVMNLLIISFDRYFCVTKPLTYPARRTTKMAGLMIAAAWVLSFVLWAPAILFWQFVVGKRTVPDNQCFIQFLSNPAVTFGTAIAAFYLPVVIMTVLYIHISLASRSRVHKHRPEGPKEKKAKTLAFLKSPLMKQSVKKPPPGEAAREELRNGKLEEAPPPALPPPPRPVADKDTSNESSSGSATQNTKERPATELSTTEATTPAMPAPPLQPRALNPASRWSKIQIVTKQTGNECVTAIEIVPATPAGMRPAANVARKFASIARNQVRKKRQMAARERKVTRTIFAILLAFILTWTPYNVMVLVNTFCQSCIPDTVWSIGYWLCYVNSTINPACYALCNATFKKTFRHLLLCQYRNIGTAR

Neutrophil elastase = target: T3, Neutrophil elastase (Homo sapiens, UniProt P08246); assay type: tissue-based;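 note: inhibition of neutrophil elastase enzyme activity, measured with a p-nitroanilide-linked peptide substrate; in other assays of this panel Not Active means under 50% inhibition at 10 µM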
T3 sequence (P08246 whole entry): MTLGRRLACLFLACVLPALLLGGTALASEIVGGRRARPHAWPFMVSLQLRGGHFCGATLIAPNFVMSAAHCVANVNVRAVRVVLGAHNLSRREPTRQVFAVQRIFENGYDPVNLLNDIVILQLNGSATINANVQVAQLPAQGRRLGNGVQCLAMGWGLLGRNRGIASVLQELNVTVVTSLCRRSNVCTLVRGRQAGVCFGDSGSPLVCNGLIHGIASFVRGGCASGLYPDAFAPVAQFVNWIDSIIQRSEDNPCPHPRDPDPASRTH

[3] = target: Protein kinase C alpha type (Homo sapiens, UniProt P17252); assay type: cell-based; conditions: sf9;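 note: inhibition of PKCalpha kinase activity measured in an enzyme assay with histone as the phosphorylation substrate; in other assays of this panel Not Active means under 50% inhibition at 10 µM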
[4] = target: Mitogen-activated protein kinase 1 (Homo sapiens, UniProt P28482); assay: DRUGMATRIX: Protein Serine/Threonine Kinase, ERK2 enzyme inhibition (substrate: Myelin Basic Protein); design: species or system Escherichia coli; conditions: Not Active = under 50% inhibition at 10 µM
Cytochrome P450 2D6 = Cytochrome P450 2D6 (Homo sapiens, UniProt P10635); conditions: bti-tn-5b1-4; note: in other assays of this panel Not Active means under 50% inhibition at 10 µM
Chain of Cytochrome P450 2D6 (P10635 whole entry): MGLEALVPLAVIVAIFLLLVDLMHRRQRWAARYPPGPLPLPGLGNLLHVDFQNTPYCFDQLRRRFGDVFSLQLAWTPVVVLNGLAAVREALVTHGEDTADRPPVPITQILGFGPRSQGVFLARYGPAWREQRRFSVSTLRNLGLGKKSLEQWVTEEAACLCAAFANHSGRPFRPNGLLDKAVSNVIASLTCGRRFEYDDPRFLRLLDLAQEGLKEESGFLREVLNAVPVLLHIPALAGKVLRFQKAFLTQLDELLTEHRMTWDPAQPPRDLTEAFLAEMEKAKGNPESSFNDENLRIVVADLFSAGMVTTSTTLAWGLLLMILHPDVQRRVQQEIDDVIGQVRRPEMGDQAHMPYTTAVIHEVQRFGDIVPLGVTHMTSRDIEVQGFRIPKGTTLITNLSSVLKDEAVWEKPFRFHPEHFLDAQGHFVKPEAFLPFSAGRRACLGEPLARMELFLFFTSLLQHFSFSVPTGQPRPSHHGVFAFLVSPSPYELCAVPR

Chain of Mitogen-activated protein kinase 1 (P28482 whole entry): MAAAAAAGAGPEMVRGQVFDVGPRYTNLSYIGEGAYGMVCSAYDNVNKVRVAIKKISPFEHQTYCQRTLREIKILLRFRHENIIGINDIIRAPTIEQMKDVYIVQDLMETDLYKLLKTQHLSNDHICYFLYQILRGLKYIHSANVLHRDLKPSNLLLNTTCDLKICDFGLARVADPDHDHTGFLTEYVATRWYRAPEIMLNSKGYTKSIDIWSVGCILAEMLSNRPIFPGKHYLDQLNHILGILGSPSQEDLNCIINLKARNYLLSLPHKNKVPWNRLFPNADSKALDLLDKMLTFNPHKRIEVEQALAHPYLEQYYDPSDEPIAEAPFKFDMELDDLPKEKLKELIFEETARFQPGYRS

C[C@H]1c2cccc(O)c2C(=O)C2=C(O)[C@]3(O)C(=O)C(C(N)=O)=C(O)[C@@H](N(C)C)[C@@H]3[C@@H](O)[C@@H]21.O [DOXYCYCLINE]
Not Active: IC50 [1] | IC50 (Carbonic anhydrase 2) | IC50 [2] | IC50 (Neutrophil elastase) | IC50 [3] | IC50 [4] | IC50 (Cytochrome P450 2D6) | Ki (Cytochrome P450 2D6)

COc1ccc(C[C@H]2NC[C@H](O)[C@H]2OC(C)=O)cc1 [ANISOMYCIN]
Not Active: IC50 [1] | Ki [1] | IC50 (Carbonic anhydrase 2) | Ki (Carbonic anhydrase 2) | IC50 [2] | Ki [2] | IC50 (Neutrophil elastase) | Ki (Neutrophil elastase) | IC50 [3] | Ki [3] | IC50 [4] | Ki [4] | IC50 (Cytochrome P450 2D6) | Ki (Cytochrome P450 2D6)
